This is an account of results in patent publication US12570687B2, “Triterpenoid compounds, pharmaceutical compositions thereof, and their use for treating a nuclear receptor subfamily 4 group a member 1-mediated disease” (NUCMITO PHARMACEUTICALS COMPANY LIMITED, priority 2019, dated 2026).

As usually defined, the Kd is the constant that tells how readily two partners part at equilibrium. For orientation: inhibition means how much of the control response was suppressed.

The structures appear in SMILES notation. A value given as a limit tells only on which side of the number the result lay.

For test [1], the target named is Nur77-LBD (Homo sapiens, UniProt P22736). As to the kind of experiment: Surface plasmon resonance (SPR) binding to Nur77-LBD. The settings on record: BIAcore T200, 25° C., 1:1 Langmuir binding mode, read-out: Kd when binding to the Nur77-LBD protein. As to the method:
A test compound was analyzed for its binding kinetics with Nur77-LBD at 25° C. on a BIAcore T200 machine with CM5 chips. PBSP was used for all measurements. For SPR measurements, Nur77-LBD proteins were purified. A blank channel was used as negative control. About 10,000 response units of Nur77-LBD were immobilized on the chips. When the data collection was finished in each cycle, the sensor surface was regenerated with glycine-HCl at pH 2.5. A serial of concentrations ranging from 0.15 to 5.0 μM of the test compound was used. Sensograms were fit globally with BIAcore T200 analysis using 1:1 Langmuir binding mode.
In general terms: Surface plasmon resonance follows binding to a sensor surface in real time, without labels.

Test [2] deals with MDA-MB-231 (breast cancer). As to the kind of experiment: MTT antiproliferative assay, MDA-MB-231. Format: cell-based. The settings on record: Homo sapiens, MDA-MB-231, 10 μM, 48 or 72 h, read-out: inhibition of cell growth, MDA-MB-231. Put shortly:
(§1)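 Growth inhibition is graded in bands of percent inhibition at 10 μM, taken from MTT read-out at 490 nm and normalised to vehicle-treated wells. Exposure runs 48 or 72 h at 37° C.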
(In general: Tetrazolium assays rely on reduction of a dye to a coloured formazan, in cell work by metabolically active cells.)

Test [3] concerns HeLa (ovarian cancer). Description: MTT antiproliferative assay, HeLa. Type of test: cell-based. As to conditions: Homo sapiens, 48 or 72 h, read-out: inhibition of cell growth, HELA. In outline: as §1
Test [4] concerns SW620 (colon cancer). As to the kind of experiment: MTT antiproliferative assay, SW620. Type of test: cell-based. As to conditions: Homo sapiens, SW-620, SW620, 10 μM, 48 or 72 h, read-out: inhibition of cell growth, SW620. In outline:
as §1

Test [5] deals with A549 (lung adenocarcinoma). As to the kind of experiment: MTT antiproliferative assay, A549. The settings on record: Homo sapiens, A549, 10 μM, 48 or 72 h, read-out: inhibition of cell growth, A549. Format: cell-based. In outline:
as §1

For test [6], the system named is A431 (epidermoid carcinoma). As to the kind of experiment: MTT antiproliferative assay, A431. Format: cell-based. As to conditions: Homo sapiens, A-431, A431, 10 μM, 48 or 72 h, read-out: inhibition of cell growth, A431. Put shortly:
as §1

Test [7] has as its system A375 (malignant melanoma). Description: MTT antiproliferative assay, A375. Format: cell-based. As to conditions: Homo sapiens, A-375, A375, 10 μM, 48 or 72 h, read-out: inhibition of cell growth, A375. In outline: as §1
The subject of test [8] is HepG2 (liver cancer). Description: MTT antiproliferative assay, HepG2. As to conditions: Homo sapiens, HepG2, 10 μM, 48 or 72 h, read-out: inhibition of cell growth, HepG2. Type of test: cell-based. In outline: as §1

Chain of Nur77-LBD (P22736 360-595 limits assumed, species assumed): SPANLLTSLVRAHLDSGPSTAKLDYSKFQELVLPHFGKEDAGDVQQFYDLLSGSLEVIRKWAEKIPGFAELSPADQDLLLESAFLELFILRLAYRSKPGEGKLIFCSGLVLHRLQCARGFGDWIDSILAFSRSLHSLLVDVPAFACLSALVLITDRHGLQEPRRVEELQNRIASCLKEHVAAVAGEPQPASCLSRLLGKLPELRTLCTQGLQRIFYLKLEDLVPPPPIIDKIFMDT

Take `CO[C@]1(C)C(=O)C(=O)C=C2C1=CC=C1[C@@]2(C)CC[C@@]2(C)[C@@H]3C[C@](C)(C(=O)O)CC[C@]3(C)CC[C@]12C` [Compound A1, (2R,4aS,6aS,9S,12bR,14aS,14bR)-9-methoxy-2,4a,6a,9,12b,14a-hexamethyl-10,11-dioxo-1,2,3,4,4a,5,6,6a,9,10,11,12b,13,14,14a,14b-hexadecahydropicene-2-carboxylic acid]: the Kd in test [1] worked out at 0.39 µM. Moreover, the inhibition at 10 µM is 50 to 80% in test [2]; at least 80% in test [3]; 50 to 80% in test [4]; 30 to 50% in test [5]; 50 to 80% in test [6]; 30 to 50% in test [7]. Moreover, the inhibition at 10 µM in test [8] lay in the range of 50 to 80%.

On to `CNC(=O)[C@]1(C)CC[C@]2(C)CC[C@]3(C)C4=CC=C5C(=CC(=O)C(=O)[C@@]5(C)OC)[C@]4(C)CC[C@@]3(C)[C@@H]2C1` [Compound A7, (2R,4aS,6aS,9S,12bR,14aS,14bR)-9-methoxy-N,2,4a,6a,9,12b,14a-heptamethyl-10,11-dioxo-1,2,3,4,4a,5,6,6a,9,10,11,12b,13,14,14a,14b-hexadecahydropicene-2-carboxamide], for which the dissociation constant Kd in test [1] was found to be 0.56 µM. In addition, the inhibition at 10 µM is at least 80% in test [2]; at least 80% in test [3]; 30 to 50% in test [4]; 30 to 50% in test [5]; 50 to 80% in test [6]; 50 to 80% in test [7]. Moreover, the inhibition at 10 µM in test [8] was 50 to 80%.

Consider `CO[C@]1(C)C(=O)C(=O)C=C2C1=CC=C1[C@@]2(C)CC[C@@]2(C)[C@@H]3C[C@](C)(C(N)=O)CC[C@]3(C)CC[C@]12C` [Compound A9, (2R,4aS,6aS,9S,12bR,14aS,14bR)-9-methoxy-2,4a,6a,9,12b,14a-hexamethyl-10,11-dioxo-1,2,3,4,4a,5,6,6a,9,10,11,12b,13,14,14a,14b-hexadecahydropicene-2-carboxamide], for which, in test [1], the Kd came out at 0.89 µM. The inhibition at 10 µM in test [2] is at least 80%; in test [3], at least 80%; in test [4] it was 50 to 80%; in test [5], 30 to 50%; in test [6], 50 to 80%; in test [7] it was 30 to 50%. In addition, the inhibition at 10 µM in test [8] lay within 50 to 80%.

`CO[C@@]1(C)C2=CC=C3[C@@](C)(CC[C@@]4(C)[C@@H]5C[C@](C)(C(=O)N6CCOCC6)CC[C@]5(C)CC[C@]34C)C2=CC(=O)[C@@H]1O` [Compound A56, (3R,4S,6bS,8aS,11R,12aR,12bS,14aR)-3-hydroxy-4-methoxy-4,6b,8a,11,12b,14a-hexamethyl-11-(morpholine-4-carbonyl)-4,6b,7,8,8a,9,10,11,12,12a,12b,13,14,14a-tetradecahydropicen-2(3H)-one]: the inhibition at 10 µM in test [2] was 50 to 80%; in test [3], 50 to 80%; in test [4], at least 80%; in test [5] it was at least 80%; in test [6], at least 80%; in test [7], 30 to 50%. Moreover, the inhibition at 10 µM in test [8] was at least 80%.

Turning to `CO[C@@]1(C)C2=CC=C3[C@@](C)(CC[C@@]4(C)[C@@H]5C[C@](C)(C(=O)NO)CC[C@]5(C)CC[C@]34C)C2=CC(=O)[C@@H]1O` [Compound A57, (2R,4aS,6aS,9S,10R,12bR,14aS,14bR)—N,10-dihydroxy-9-methoxy-2,4a,6a,9,12b,14a-hexamethyl-11-oxo-1,2,3,4,4a,5,6,6a,9,10,11,12b,13,14,14a,14b-hexadecahydropicene-2-carboxamide], the inhibition at 10 µM in test [2] was 50 to 80%; in test [3], 50 to 80%; in test [4] it was at least 80%; in test [5] it was at least 80%; in test [6], at least 80%; in test [7], 30 to 50%. For the same compound, the inhibition at 10 µM in test [8] is at least 80%.

Regarding `CO[C@@]1(C)C2=CC=C3[C@@](C)(CC[C@@]4(C)[C@@H]5C[C@](C)(C(N)=O)CC[C@]5(C)CC[C@]34C)C2=CC(=O)/C1=C\C#N` [Compound A59, (2R,4aS,6aS,9S,10Z,12bR,14aS,14bR)-10-(cyanomethylidene)-9-methoxy-2,4a,6a,9,12b,14a-hexamethyl-11-oxo-1,2,3,4,4a,5,6,6a,9,10,11,12b,13,14,14a,14b-hexadecahydropicene-2-carboxamide], the inhibition at 10 µM in test [2], in test [3], in test [4], in test [5], in test [6] and in test [7] was at least 80% in each case. Besides, in test [8], the inhibition at 10 µM is at least 80%.

For the compound `CO[C@@]1(C)C2=CC=C3[C@@](C)(CC[C@@]4(C)[C@@H]5C[C@](C)(C#N)CC[C@]5(C)CC[C@]34C)C2=CC(=O)[C@@H]1O` [Compound A62, (2R,4aS,6aS,9S,10R,12bR,14aS,14bR)-10-hydroxy-9-methoxy-2,4a,6a,9,12b,14a-hexamethyl-11-oxo-1,2,3,4,4a,5,6,6a,9,10,11,12b,13,14,14a,14b-hexadecahydropicene-2-carbonitrile], the inhibition at 10 µM is 30 to 50% in test [2]; under 30% in test [3]; at least 80% in test [4]; 30 to 50% in test [5]; at least 80% in test [6]; 30 to 50% in test [7]. Moreover, the inhibition at 10 µM in test [8] lay in the range of 30 to 50%.
